Test [1] deals with T1, Aurora kinase A (Homo sapiens) (UniProt O14965).
T1 sequence (whole entry): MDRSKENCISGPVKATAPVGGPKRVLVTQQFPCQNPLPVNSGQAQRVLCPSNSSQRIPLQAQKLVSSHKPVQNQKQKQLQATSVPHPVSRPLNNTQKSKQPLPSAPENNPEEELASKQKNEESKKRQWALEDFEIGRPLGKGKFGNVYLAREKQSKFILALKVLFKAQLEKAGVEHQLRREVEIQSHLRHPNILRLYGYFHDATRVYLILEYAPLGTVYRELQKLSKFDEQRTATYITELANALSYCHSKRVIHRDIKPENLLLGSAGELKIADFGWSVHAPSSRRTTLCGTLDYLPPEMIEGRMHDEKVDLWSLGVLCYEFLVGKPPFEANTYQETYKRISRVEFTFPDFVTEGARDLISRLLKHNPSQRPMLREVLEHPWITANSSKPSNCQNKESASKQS
Briefly: Binding affinity to GST-tagged Aurora A after 1 hr by ELISA.

For test [2], the target named is T1, Aurora kinase A (Homo sapiens). Put plainly: Inhibition of Aurora A at 100 uM by IMAP fluorescence polarization assay. In general terms: In fluorescence polarisation assays a small probe gives low polarisation when free and higher when bound to something large.
Test [3] shares this target. Briefly: Inhibition of Aurora A at 10 uM by IMAP fluorescence polarization assay.

Active and inactive are the calls of the source. Residues, ends and D or L forms follow the SMILES beside them.

This is an account of results in ChEMBL document CHEMBL1154915, “Selection of inhibitory peptides for Aurora-A kinase from a phage-displayed library of helix-loop-helix peptides” (Bioorg Med Chem Lett, 2010).

As usually defined, the inhibition is the drop in the measured response relative to a control, in per cent. As to “H-AELAALEAELAALEGRRVVVSFAWDGKLAALKAKLAALKA-OH”, in test [1], the outcome was Active. Also, the inhibition in test [2] worked out at 35%.

Regarding “H-AELAALEAELAALEGGGGGGGKLAALKAKLAALKAY-NH2”, the result in test [1] was inactive. Besides, the inhibition entry in test [2] was “inactive”.

Consider H-GRRVVVAFAWD-NH2, for which the inhibition entry in test [2] was “inactive”.

Turning to “H-AELAALEAELAALEGRRVVVAFAWDKLAALKAKLAALKA-NH2”, in test [3], the inhibition worked out at 42%.

In the case of “H-AELAALEAELAALEGSSERKLVLLGKLAALKAKLAALKA-OH”, in test [1], the result was Active. In addition, the inhibition in test [2] was determined as 17%.

On to “H-AELAALEAELAALEGVGEFSVSLLGKLAALKAKLAALKA-OH”, for which the result in test [1] was Active. For the same compound, the inhibition result in test [2] is “inactive”.

As for “H-AELAALEAELAALEGERRLIIFNSGKLAALKAKLAALKA-OH”, the result in test [1] was Active. The compound also yielded an inhibition in test [2] of 20%.

On to “H-AELAALEAELAALEGARHFYVQSVGKLAALKAKLAALKA-OH”, for which the outcome in test [1] was Active. The inhibition result in test [2] is “inactive”.

Consider `CC(C)C[C@H](NC(=O)[C@H](C)NC(=O)[C@H](C)NC(=O)[C@H](CC(C)C)NC(=O)[C@H](CCC(=O)O)NC(=O)[C@H](C)NC(=O)[C@H](CCC(=O)O)NC(=O)[C@H](CC(C)C)NC(=O)[C@H](C)NC(=O)[C@H](C)NC(=O)[C@H](CC(C)C)NC(=O)[C@H](CCC(=O)O)NC(=O)[C@H](C)N)C(=O)N[C@@H](CCC(=O)O)C(=O)NCC(=O)N[C@@H](CS)C(=O)N[C@H](C(=O)N[C@@H](CO)C(=O)N[C@H](C(=O)N[C@@H](Cc1ccc(O)cc1)C(=O)N[C@@H](CS)C(=O)N[C@H](C(=O)N[C@H](C(=O)N[C@@H](CO)C(=O)NCC(=O)N[C@@H](CCCCN)C(=O)N[C@@H](CC(C)C)C(=O)N[C@@H](C)C(=O)N[C@@H](C)C(=O)N[C@@H](CC(C)C)C(=O)N[C@@H](CCCCN)C(=O)N[C@@H](C)C(=O)N[C@@H](CCCCN)C(=O)N[C@@H](CC(C)C)C(=O)N[C@@H](C)C(=O)N[C@@H](C)C(=O)N[C@@H](CC(C)C)C(=O)N[C@@H](CCCCN)C(=O)N[C@@H](C)C(=O)O)C(C)C)[C@@H](C)O)C(C)C)[C@@H](C)O` (H-AELAALEAELAALEGCTSVYCTVSGKLAALKAKLAALKA-OH), for which the outcome in test [1] was Active.

As for “H-AELAALEAELAALEGSRRMWNAYEGKLAALKAKLAALKA-OH”, the outcome in test [1] was Active.

As for “H-AELAALEAELAALEGLQTMWHSLWGKLAALKAKLAALKA-OH”, in test [1], the outcome was Active.

Turning to `CC(C)C[C@H](NC(=O)[C@H](C)NC(=O)[C@H](C)NC(=O)[C@H](CC(C)C)NC(=O)[C@H](CCC(=O)O)NC(=O)[C@H](C)NC(=O)[C@H](CCC(=O)O)NC(=O)[C@H](CC(C)C)NC(=O)[C@H](C)NC(=O)[C@H](C)NC(=O)[C@H](CC(C)C)NC(=O)[C@H](CCC(=O)O)NC(=O)[C@H](C)N)C(=O)N[C@@H](CCC(=O)O)C(=O)NCC(=O)N[C@@H](CCCNC(=N)N)C(=O)N[C@@H](CCCCN)C(=O)N[C@@H](CC(=O)O)C(=O)N[C@@H](Cc1ccc(O)cc1)C(=O)N[C@@H](Cc1ccccc1)C(=O)N[C@@H](Cc1cnc[nH]1)C(=O)N[C@@H](CC(C)C)C(=O)N[C@@H](Cc1c[nH]c2ccccc12)C(=O)N[C@@H](Cc1cnc[nH]1)C(=O)N[C@@H](CC(=O)O)C(=O)NCC(=O)N[C@@H](CCCCN)C(=O)N[C@@H](CC(C)C)C(=O)N[C@@H](C)C(=O)N[C@@H](C)C(=O)N[C@@H](CC(C)C)C(=O)N[C@@H](CCCCN)C(=O)N[C@@H](C)C(=O)N[C@H](CCCCN)C(=O)N[C@H](CC(C)C)C(=O)N[C@H](C)C(=O)N[C@H](C)C(=O)N[C@H](CC(C)C)C(=O)N[C@H](CCCCN)C(=O)N[C@H](C)C(=O)O`, the outcome in test [1] was Active.

For the compound “H-AELAALEAELAALEGSGMLAHFSWGKLAALKAKLAALKA-OH”, the outcome in test [1] was Active.

For “H-AELAALEAELAALEGWVQVAQKVRGKLAALKAKLAALKA-OH”, the outcome in test [1] was Active.

As for “H-AELAALEAELAALEGQGRADMSILGKLAALKAKLAALKA-OH”, in test [1], the outcome was Active.

Turning to “H-AELAALEAELAALEGSRNQMYWLYGKLAALKAKLAALKA-OH”, in test [1], the outcome was Active.

In the case of “H-AELAALEAELAALEGAPCLVMTTAGKLAALKAKLAALKA-OH”, the outcome in test [1] was Active.

As to “H-AELAALEAELAALEGGSPRWYELLGKLAALKAKLAALKA-OH”, in test [1], the outcome was Active.

In the case of “H-AELAALEAELAALEGGKVAAWGFWGKLAALKAKLAALKA-OH”, in test [1], the outcome was Active.
